# Laboratory results from patent US20070117743A1, “New antitumoral compounds” (priority 2003, published 2007).
# Read-outs that look alike come from different tables or passages of the source. Where a SMILES comes first, the peptide text is derived from it. Bridges are numbered along the chain shown (N, C = ends). [ ]: non-standard residue; d: D form. The star is where a group is joined. d(aIle) = CC[C@H](C)[C@@H](N)C(=O)O; d(aThr) = C[C@@H](O)[C@@H](N)C(=O)O; Hexanoyl(5-Me) = CC(C)CCCC(=O)*; Orn = NCCC[C@H](N)C(=O)O; Aib = CC(C)(N)C(=O)O; Dha = C=C(N)C(=O)O
# How the values were obtained:
# Type in all cases: cell-based, human
# DU-145 = assay: SRB colorimetric assay of cell growth and viability, DU-145; details: 48 hours exposure
# IGROV-ET = assay: SRB colorimetric assay of cell growth and viability, IGROV-ET; details: 48 hours exposure; for CC50: read-out: LC50 IGROV-ET
# HT-29 = assay: SRB colorimetric assay of cell growth and viability, HT-29; details: 48 hours exposure, SRB; for GI50: read-out: GI50 HT-29; for CC50: read-out: LC50 HT-29
# LoVo-Dox = assay: SRB colorimetric assay of cell growth and viability, LoVo-Dox; details: 48 hours exposure, SRB; for CC50: read-out: LC50 LOVO-DOX
# Procedure, shortened: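 Human tumor cells seeded at 5×10^3/well in RPMI 1640 10% FBS, attached 18 hours, then exposed 48 hours to compound (10 to 10^−8 μg/mL). TCA-fixed, SRB-stained, OD 490 nm; triplicates give GI, TGI and LC values.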
# HeLa-APL = assay: SRB colorimetric assay of cell growth and viability, HeLa-APL; details: 48 hours exposure, SRB; for CC50: read-out: LC50 HELA-APL
# A-549 = assay: SRB colorimetric assay of cell growth and viability, A-549; details: 48 hours exposure, SRB; for GI50: read-out: GI50 A-549; for CC50: read-out: LC50 A-549
# PANC-1 = assay: SRB colorimetric assay of cell growth and viability, PANC-1; details: 48 hours exposure, SRB; for CC50: read-out: LC50 PANC-1
# LNCaP = assay: SRB colorimetric assay of cell growth and viability, LNCaP; details: 48 hours exposure; for CC50: read-out: LC50 LN-caP; for GI50: read-out: GI50 LN-caP
# HeLa = assay: SRB colorimetric assay of cell growth and viability, HeLa; details: 48 hours exposure, SRB; for CC50: read-out: LC50 HELA
# SK-BR-3 = assay: SRB colorimetric assay of cell growth and viability, SK-BR-3; details: 48 hours exposure
# LoVo = assay: SRB colorimetric assay of cell growth and viability, LoVo; details: 48 hours exposure, SRB; for CC50: read-out: LC50 LOVO
# IGROV-1 = assay: SRB colorimetric assay of cell growth and viability, IGROV-1; details: 48 hours exposure
# K-562 = assay: SRB colorimetric assay of cell growth and viability, K-562; details: 48 hours exposure, SRB; for CC50: read-out: LC50 K-562
# SK-MEL-28 = assay: SRB colorimetric assay of cell growth and viability, SK-MEL-28; details: 48 hours exposure; for CC50: read-out: LC50 MEL-28
smiles,measurement,setting,value
"CC[C@H](C)[C@@H](NC(=O)[C@H](CCCN)NC(=O)[C@H]1CCCN1C(=O)[C@H](NC(=O)[C@@H](NC(=O)[C@@H](NC(=O)[C@H](NC(=O)CCCC(C)C)C(C)C)[C@@H](C)O)C(C)C)C(C)C)C(=O)N[C@H]1C(=O)N[C@H]([C@@H](C)CC)C(=O)N[C@H](C(C)C)C(=O)N[C@@H](Cc2ccccc2)C(=O)NC(C)(C)C(=O)N[C@@H](C(C)C)C(=O)O[C@@H]1C [Compound 66, [Aib^2]-KF] ({Hexanoyl(5-Me)}-[dV]TV[dV][dP][Orn][d(aIle)][d(aThr)][d(aIle)][dV]F[Aib]V; ester 8-C)",GI50,DU-145,1.36 µM
same,TGI DU-145,DU-145,2.73E−06 Molar
same,LC50 (concentration causing 50% net cell kill),DU-145; SRB,5.45 µM
same,GI50,IGROV-ET,1.21 µM
same,TGI IGROV-ET,IGROV-ET,2.43E−06 Molar
same,CC50,IGROV-ET; SRB,4.89 µM
same,TGI HT-29,HT-29,2.54E−06 Molar
same,GI50,HT-29,1.28 µM
same,CC50,HT-29,5.06 µM
same,GI50,LoVo-Dox,1.07 µM
same,TGI LOVO-DOX,LoVo-Dox,2.26E−06 Molar
same,CC50,LoVo-Dox,4.8 µM
same,GI50,HeLa-APL,3.41 µM
same,TGI HELA-APL,HeLa-APL,6.76E−06 Molar
same,CC50,HeLa-APL,≥ 6.76 µM
same,TGI A-549,A-549,6.76E−06 Molar
same,GI50,A-549,4.96 µM
same,CC50,A-549,≥ 6.76 µM
same,GI50,PANC-1,≥ 6.76 µM
same,TGI PANC-1,PANC-1,6.76E−06 Molar
same,CC50,PANC-1,≥ 6.76 µM
same,TGI LN-caP,LNCaP,6.76E−06 Molar
same,CC50,LNCaP; SRB,≥ 6.76 µM
same,GI50,LNCaP,4.63 µM
same,GI50,HeLa,3.17 µM
same,TGI HELA,HeLa,6.76E−06 Molar
same,CC50,HeLa,≥ 6.76 µM
same,GI50,SK-BR-3,1.49 µM
same,TGI SK-BR-3,SK-BR-3,2.67E−06 Molar
same,LC50,SK-BR-3; SRB,4.77 µM
same,GI50,LoVo,1.3 µM
same,TGI LOVO,LoVo,2.47E−06 Molar
same,CC50,LoVo,4.71 µM
same,GI50,IGROV-1,1.57 µM
same,TGI IGROV,IGROV-1,2.82E−06 Molar
same,LC50 (concentration causing 50% net cell killing),IGROV-1; SRB,5.05 µM
same,GI50,K-562,≥ 6.76 µM
same,TGI K-562,K-562,6.76E−06 Molar
same,CC50,K-562,≥ 6.76 µM
same,GI50,SK-MEL-28,2.24 µM
same,TGI MEL-28,SK-MEL-28,6.14E−06 Molar
same,CC50,SK-MEL-28; SRB,≥ 6.76 µM
"C=C1NC(=O)[C@H](Cc2ccccc2)NC(=O)[C@@H](C(C)C)NC(=O)[C@@H]([C@@H](C)CC)NC(=O)[C@H](NC(=O)[C@H](NC(=O)[C@H](CCCN)NC(=O)[C@H]2CCCN2C(=O)[C@H](NC(=O)[C@@H](NC(=O)[C@@H](NC(=O)[C@H](NC(=O)CCCC(C)C)C(C)C)[C@@H](C)O)C(C)C)C(C)C)[C@@H](C)CC)[C@@H](C)OC(=O)[C@H](C(C)C)NC1=O [Compound 67, [Dha^2]-KF] ({Hexanoyl(5-Me)}-[dV]TV[dV][dP][Orn][d(aIle)][d(aThr)][d(aIle)][dV]F[Dha]V; ester 8-C)",GI50,DU-145; SRB,0.915 µM
same,LC50 (concentration causing 50% net cell kill),DU-145; SRB,3.4 µM
same,TGI DU-145,DU-145; SRB,1.77E−06 Molar
same,GI50,IGROV-ET; SRB,0.39 µM
same,TGI IGROV-ET,IGROV-ET; SRB,1.33E−06 Molar
same,CC50,IGROV-ET; SRB,4.53 µM
same,TGI HT-29,HT-29,9.63E−07 Molar
same,GI50,HT-29,0.347 µM
same,CC50,HT-29,4.17 µM
same,GI50,LoVo-Dox,0.264 µM
same,TGI LOVO-DOX,LoVo-Dox,5.61E−06 Molar
same,CC50,LoVo-Dox,2.47 µM
same,GI50,HeLa-APL,1.09 µM
same,TGI HELA-APL,HeLa-APL,2.03E−06 Molar
same,CC50,HeLa-APL,3.75 µM
same,TGI A-549,A-549,2.70E−06 Molar
same,GI50,A-549,1.44 µM
same,CC50,A-549,5.06 µM
same,GI50,PANC-1,≥ 6.83 µM
same,TGI PANC-1,PANC-1,6.83E−06 Molar
same,CC50,PANC-1,≥ 6.83 µM
same,TGI LN-caP,LNCaP; SRB,4.60E−06 Molar
same,GI50,LNCaP; SRB,1.83 µM
same,CC50,LNCaP; SRB,≥ 6.83 µM
same,GI50,HeLa,1.15 µM
same,TGI HELA,HeLa,2.15E−06 Molar
same,CC50,HeLa,4 µM
same,GI50,SK-BR-3; SRB,0.32 µM
same,LC50,SK-BR-3; SRB,2.21 µM
same,TGI SK-BR-3,SK-BR-3; SRB,5.56E−07 Molar
same,GI50,LoVo,0.173 µM
same,TGI LOVO,LoVo,3.40E−07 Molar
same,CC50,LoVo,0.669 µM
same,GI50,IGROV-1; SRB,0.553 µM
same,LC50 (concentration causing 50% net cell killing),IGROV-1; SRB,4.59 µM
same,TGI IGROV,IGROV-1; SRB,1.58E−06 Molar
same,GI50,K-562,2.92 µM
same,TGI K-562,K-562,6.83E−06 Molar
same,CC50,K-562,≥ 6.83 µM
same,GI50,SK-MEL-28; SRB,1.13 µM
same,TGI MEL-28,SK-MEL-28; SRB,2.25E−06 Molar
same,CC50,SK-MEL-28; SRB,4.51 µM
